Measured values reported in patent US20240197938A1, “ANTIMICROBIAL COMPOUNDS BASED ON GLUCOHEPTONIC ACIDS AND THEIR SALTS” (HARCROS CHEMICALS, INC., priority 2021, published 2024).

What was measured:
[1] = Bubble pressure tensiometry (dynamic surface tension, calculated CMC); assay type: physicochemical; details: for Calculated CMC: bubble tensiometry
Method: Dynamic surface tensions of certain formulations were measured using a KRÜSS BP100 BPT Mobile bubble pressure tensiometer. Samples of the solution of Example 7 were tested by adding the test solution to a glass dish and lowering the disposable capillary tip and temperature probe into the solution. The dynamic setting was selected, and the instrument was set to collect 30 data points, the bubble age increasing from about 10 ms to about 30,000 ms.
Bubble tensiometry was used to calculate the Critical Micelle Concentration (CMC) value for each of the solutions.
FIG. 1 presents a comparison of the bubble age to surface tension for RM14A at CMC, sub-CMC, and super-CMC concentrations. FIG. 2 presents a comparison of the bubble age to surface tension for RM14B at CMC, sub-CMC, and super-CMC concentrations. FIG. 3 presents a comparison of the bubble age to surface tension for RM14C at CMC, sub-CMC, and super-CMC concentrations. FIG. 4 presents a comparison of the bubble age to surface tension for RM12A, RM13A, RM14A, and RM15A at super-CMC concentrations. FIG. 5 presents a comparison of the bubble age to surface tension for RM12A, RM13A, RM14A, and RM15A at CMC concentrations. FIG. 6 presents a comparison of the bubble age to surface tension for RM12A, RM13A, RM14A, and RM15A at CMC concentrations. FIG. 7 presents a comparison of bubble age to surface tension for RM12A, RM13A, RM14A, and RM15A at sub-CMC concentrations.

[2] = Conductivity testing (calculated CMC); assay type: physicochemical; details: for Calculated CMC, All Points: all data points; for Calculated CMC, Average: average of outer, inner, all points; for Calculated CMC, Inner Points: inner data points; for Calculated CMC, Outer Points: outer data points
Method: Conductivities were measured using a VWR 23609-216 Pure H2O Tester conductivity meter. The meter probe was submerged into the test solution and swirled gently. Once the meter settled, the value was recorded.
The conductivity of the solutions of Example 7 were tested at dilutions ranging from 0.1 M to 0.001 M. The data was plotted on a logarithmic scale and analyzed in the style of Heard and Ashworth. For each sample, three graphs were reported and fitted with a trend curve: outer data points, inner data points, all data points. […] An average CMC value was determined from the three trend samples (outer data points, inner data points, all data points) in order to more accuracy predict the CMC value.
LINEST was utilized to determine the slope and intercept for each line, and a combination of INTERCEPT and SLOPE was used to determine the intersection of the two fitted lines. The Critical Micelle Concentration (CMC) was determined for each of these plots by the intercept of the two lines. Set forth below in Table 5 is the calculated CMC for each graph and the average CMC.

## N=C(NCCCCCCNC(=N)NC(=N)Nc1ccc(Cl)cc1)NC(=N)Nc1ccc(Cl)cc1.O=C(O)[C@H](O)[C@@H](O)[C@H](O)[C@H](O)CO.O=C(O)[C@H](O)[C@@H](O)[C@H](O)[C@H](O)CO [RM12A, Chlorhexidine digluconate]
[1]
  Calculated CMC: 0.0168 M
[2]
  Calculated CMC, All Points: 0.0133 M
  Calculated CMC, Average: 0.0126 M
  Calculated CMC, Inner Points: 0.0128 M
  Calculated CMC, Outer Points: 0.0118 M

## N=C(NCCCCCCNC(=N)NC(=N)Nc1ccc(Cl)cc1)NC(=N)Nc1ccc(Cl)cc1.O=C(O)[C@H](O)[C@@H](O)[C@H](O)[C@H](O)CO.O=C(O)[C@H](O)[C@@H](O)[C@H](O)[C@H](O)CO [RM12B, Chlorhexidine digluconate]
[1]
  Calculated CMC: 0.0195 M
[2]
  Calculated CMC, All Points: 0.0133 M
  Calculated CMC, Average: 0.0127 M
  Calculated CMC, Inner Points: 0.0131 M
  Calculated CMC, Outer Points: 0.0117 M

## N=C(NCCCCCCNC(=N)NC(=N)Nc1ccc(Cl)cc1)NC(=N)Nc1ccc(Cl)cc1.O=C(O)[C@H](O)[C@@H](O)[C@H](O)[C@H](O)CO.O=C(O)[C@H](O)[C@@H](O)[C@H](O)[C@H](O)CO [RM12C, Chlorhexidine digluconate]
[1]
  Calculated CMC: 0.0195 M
[2]
  Calculated CMC, All Points: 0.0133 M
  Calculated CMC, Average: 0.0131 M
  Calculated CMC, Inner Points: 0.0143 M
  Calculated CMC, Outer Points: 0.0116 M

## N=C(NCCCCCCNC(=N)NC(=N)Nc1ccc(Cl)cc1)NC(=N)Nc1ccc(Cl)cc1.O=C(O)C(O)C(O)C(O)C(O)C(O)CO.O=C(O)C(O)C(O)C(O)C(O)C(O)CO [RM13A, Chlorhexidine di-α-glucoheptonate]
[1]
  Calculated CMC: 0.0200 M
[2]
  Calculated CMC, All Points: 0.0132 M
  Calculated CMC, Average: 0.0123 M
  Calculated CMC, Inner Points: 0.0122 M
  Calculated CMC, Outer Points: 0.0115 M

## N=C(NCCCCCCNC(=N)NC(=N)Nc1ccc(Cl)cc1)NC(=N)Nc1ccc(Cl)cc1.O=C(O)C(O)C(O)C(O)C(O)C(O)CO.O=C(O)C(O)C(O)C(O)C(O)C(O)CO [RM13B, Chlorhexidine di-α-glucoheptonate]
[1]
  Calculated CMC: 0.0167 M
[2]
  Calculated CMC, All Points: 0.0132 M
  Calculated CMC, Average: 0.0126 M
  Calculated CMC, Inner Points: 0.0131 M
  Calculated CMC, Outer Points: 0.0116 M

## N=C(NCCCCCCNC(=N)NC(=N)Nc1ccc(Cl)cc1)NC(=N)Nc1ccc(Cl)cc1.O=C(O)C(O)C(O)C(O)C(O)C(O)CO.O=C(O)C(O)C(O)C(O)C(O)C(O)CO [RM13C, Chlorhexidine di-α-glucoheptonate]
[1]
  Calculated CMC: 0.0198 M
[2]
  Calculated CMC, All Points: 0.0130 M
  Calculated CMC, Average: 0.0126 M
  Calculated CMC, Inner Points: 0.0134 M
  Calculated CMC, Outer Points: 0.0113 M

## N=C(NCCCCCCNC(=N)NC(=N)Nc1ccc(Cl)cc1)NC(=N)Nc1ccc(Cl)cc1.O=C(O)C(O)C(O)C(O)C(O)C(O)CO.O=C(O)C(O)C(O)C(O)C(O)C(O)CO [RM14A, Chlorhexidine di-β73-glucoheptonate]
[1]
  Calculated CMC: 0.0168 M
[2]
  Calculated CMC, All Points: 0.0130 M
  Calculated CMC, Average: 0.0126 M
  Calculated CMC, Inner Points: 0.0135 M
  Calculated CMC, Outer Points: 0.0113 M

## N=C(NCCCCCCNC(=N)NC(=N)Nc1ccc(Cl)cc1)NC(=N)Nc1ccc(Cl)cc1.O=C(O)C(O)C(O)C(O)C(O)C(O)CO.O=C(O)C(O)C(O)C(O)C(O)C(O)CO [RM14B, Chlorhexidine di-β73-glucoheptonate]
[1]
  Calculated CMC: 0.0167 M
[2]
  Calculated CMC, All Points: 0.0132 M
  Calculated CMC, Average: 0.0132 M
  Calculated CMC, Inner Points: 0.0152 M
  Calculated CMC, Outer Points: 0.0113 M

## N=C(NCCCCCCNC(=N)NC(=N)Nc1ccc(Cl)cc1)NC(=N)Nc1ccc(Cl)cc1.O=C(O)C(O)C(O)C(O)C(O)C(O)CO.O=C(O)C(O)C(O)C(O)C(O)C(O)CO [RM14C, Chlorhexidine di-β73-glucoheptonate]
[1]
  Calculated CMC: 0.0166 M
[2]
  Calculated CMC, All Points: 0.0131 M
  Calculated CMC, Average: 0.0133 M
  Calculated CMC, Inner Points: 0.0156 M
  Calculated CMC, Outer Points: 0.0111 M

## N=C(NCCCCCCNC(=N)NC(=N)Nc1ccc(Cl)cc1)NC(=N)Nc1ccc(Cl)cc1.O=C(O)C(O)C(O)C(O)C(O)C(O)CO.O=C(O)C(O)C(O)C(O)C(O)C(O)CO [RM15, chlorhexidine di-β81-glucoheptonate]
[1]; sub-CMC, CMC and super-CMC concentrations, FIGS. 1-7
  surface tension versus bubble age (rate and magnitude of reduction): fall more rapidly and to a lower value than either the di-α-glucoheptonate or the comparative digluconate salt

## N=C(NCCCCCCNC(=N)NC(=N)Nc1ccc(Cl)cc1)NC(=N)Nc1ccc(Cl)cc1.O=C(O)C(O)C(O)C(O)C(O)C(O)CO.O=C(O)C(O)C(O)C(O)C(O)C(O)CO [RM15A, Chlorhexidine di-β81-glucoheptonate]
[1]
  Calculated CMC: 0.0173 M
[2]
  Calculated CMC, All Points: 0.0133 M
  Calculated CMC, Average: 0.0133 M
  Calculated CMC, Inner Points: 0.0154 M
  Calculated CMC, Outer Points: 0.0113 M
